According to patent US20260069606A1, “Oxidative Stress and Diabetes Treatment with Cobinamide” (The Regents of the University of California, priority 2022, published 2026):

Tests used:
[1] = system: H9c2 rat embryonal cardiomyocytes; assay: Mitochondrial superoxide content, MitoSOX Red fluorescence; assay type: cell-based
Procedure: FIGS. 3A-3H. […] FIGS. 3A-3B. […] FIG. 3A. […] FIG. 3B. […] FIGS. 3C-3D. […] FIG. 3D. […] FIGS. 3E-3F. […] FIG. 3E. Representative blots are shown. […] FIG. 3F. […] FIG. 3G. […] FIG. 3H.
H9c2 cells were plated on glass cover slips in 24 well dishes, and 16 h later the medium was changed to phenol red-free DMEM supplemented with 20 mM Hepes, 0.1% fetal bovine serum, and 0.5% bovine serum albumin. […] MitoSOX Red is a dihydroethidium derivative containing triphenyl-phosphonium, which localizes it to respiring mitochondria. Its reaction with O2·^− yields 2-hydroxy-mitoethidium (2-OH-Mito-E″), whereas its reaction with other oxidative species yields mitoethidium (Mito-E^+)^67. These two oxidative derivatives have overlapping fluorescence spectra, but they can be distinguished by high performance liquid chromatography (HPLC)^68. Rotenone increased 2-OH-Mito-E^+ about two-fold, without increasing Mito-E^+. Thus, any increased fluorescence observed on treating cells with rotenone could be ascribed to an increase in 2-OH-Mito-E^+, and decreased fluorescence by an anti-oxidant in rotenone-treated cells was likely from a decrease in 2-OH-Mito-E^+.
The cells were then washed once with PBS, placed back in the DMEM experimental medium, and incubated with the indicated drugs for 30 min. At the end of the incubation period, nuclei of both the MitoSOX Red- and JC-1-treated cells were stained with […] 4′,6-diamidino-2-phenyl-indole (DAPI) for 3 min, washed once with PBS, and returned to the DMEM experimental medium. The cover slips were removed from the wells, mounted in the DMEM experimental medium, and red (MitoSOX Red and JC-1 aggregates), green (JC-1 monomers), and blue (DAPI) fluorescence intensity was assessed using a Keyence BZ-X700 fluorescence microscope at the following paired excitation/emission wavelengths, respectively: 560/630, 490/525, and 360/460 nm.
To assess if cobinamide reduces oxidative stress in cells and to compare its […] efficacy to that of cobalamin, imisopasem, and MnTBAP, several sets of experiments were performed. First, whether cobinamide reduces mitochondrial-generated O2·^− was evaluated using the fluorescent probe MitoSOX Red. H9c2 rat embryonal cardiomyocytes were treated with rotenone, an inhibitor of complex I, to increase mitochondrial O2·^−. […] Monitoring the UV-visible spectrum of cobinamide is a sensitive means to assess ligand binding^38.

hearts of diabetic mice [2] = assay: Cardiac fibrosis (collagen deposition, Mallory trichrome) in diabetic mice; assay type: in vivo; settings: three months histidyl-cobinamide in drinking water
Procedure: (§1) FIGS. 4A-4K. Cobinamide Rescues Flies from Paraquat Poisoning and Prevents Abnormal Lipid and Protein Oxidation, DNA Damage, and Fibrosis in the Hearts of Diabetic Mice. FIG. 4A. At time zero, 10 fruit flies (D. melanogaster) were transferred to vials with food to which either phosphate-buffered saline (PBS), 0.8 mM of the indicated drugs, 20 mM paraquat (PQ), or 20 mM paraquat with 0.8 mM of the indicated drugs had been added. The number of live flies was counted each day for 7 d. The experiment was repeated seven times, for a total of 70 flies per condition. The percent surviving flies was calculated; error bars represent standard deviations and are shown in one direction only for sake of clarity. FIGS. 4B-4K. […] The amount of 8-isoprostane (FIG. 4B) was measured by ELISA, protein oxidation (FIGS. 4C-4D) was assessed by immunoblotting, and nitrotyrosine content (FIGS. 4E-4F) was assessed by immunohistochemistry. DNA damage was assessed by 8-OH-deoxyguanosine staining (FIGS. 4G-4H) and a long amplicon qPCR-based assay (FIG. 4I). Cardiac fibrosis (FIGS. 4J-4K) was assessed by Mallory trichrome staining, which stains collagen blue. […] For Panels C, D, and I, frozen heart samples were selected randomly from each of the four groups and were analyzed. For Panel D, blots were analyzed by densitometric scanning using Li-Cor Odyssey software, with the density of each lane normalized to the actin band. […]

[3] = mouse, in vivo
Procedure: It seemed possible, therefore, that the cobinamide administered to the mice could have increased their blood pressure, since ·NO is a potent vasodilator. Because diabetes can increase blood pressure, these studies were performed on a parallel set of non-diabetic mice of the same strain and sex and using the same concentration of histidyl-cobinamide in the drinking water as in the above-described studies.

hearts of diabetic mice [4] = assay: Lipid and protein oxidation and DNA damage in hearts of diabetic mice; assay type: in vivo
Procedure: as §1

C/C1=C2/[N-][C@H]([C@H](CC(N)=O)[C@@]2(C)CCC(=O)NC[C@@H](C)O)[C@]2(C)N=C(/C(C)=C3N=C(/C=C4N=C1[C@@H](CCC(N)=O)C\4(C)C)[C@@H](CCC(N)=O)[C@]\3(C)CC(N)=O)[C@@H](CCC(N)=O)[C@]2(C)CC(N)=O.[Co+3] [cobinamide, aquohydroxo-cobinamide]
MitoSOX red fluorescence in rotenone-treated cells ([1]; H9c2, 5 μM rotenone 30 min, drugs at 2.5 μM): markedly reduced fluorescence
MitoSOX red fluorescence, drug alone ([1]; H9c2, vehicle-treated cells without rotenone, 2.5 μM): no change
Collagen content in hearts of diabetic mice (hearts of diabetic mice [2]): reduced collagen content in the hearts of the diabetic mice essentially to that of non-diabetic mice
Blood pressure [3]: no change in blood pressure
All markers of oxidative stress and DNA damage in hearts of diabetic mice (hearts of diabetic mice [4]; 8-isoprostane, protein carbonylation, nitrotyrosine, 8-OH-deoxyguanosine, long-amplicon PCR, three months histidyl-cobinamide in drinking water): significantly reduced all markers of oxidative stress and DNA damage to values similar to those found in the non-diabetic mice
Tyrosine nitration in hearts of diabetic mice (hearts of diabetic mice [4]; nitrotyrosine immunohistochemistry): reduced
